Laboratory results as given in patent publication US7115614B2, “Method of treating brain ischemia” (Kyowa Hakko Kogyo Co., Ltd., priority 1997, dated 2006).
Where “and” joins values, the source holds several entries; their conditions need not be identical. Equal values may be shown once.

Columns and labels:
dd-strain male mice = experiment: Acute toxicity test (minimum lethal dose); format: in vivo; conditions: oral administration, mortality seven days after the administration
Excerpt: Test compounds were orally or intraperitoneally administered to groups of dd-strain male mice weighing 20±1 g, each group consisting of three mice.

dopaminergic neurons = experiment: Inhibitory action on neurodegeneration: MPTP HCl-treated mice, specific [3H]-mazindol binding in the striatum; format: in vivo, C57BL/6NCrj mice; conditions: for amount of specifically bound [3H]-mazindol in the striatum: striatum removed after 1 week, mean ± standard error
Description: The experiment was conducted according to the method of Sundstrom et al. (Brain. Res. Bulletin, 21, 257–263 (1988)).
In the experiment, 9- to 10-week-old male C57BL/6NCrj mice (supplied by Nippon Charles River) were used. During the period of preliminary breeding, the animals were kept in a laboratory at room temperature (22 to 24° C.) under 50 to 60% humidity and allowed food and water ad libitum.
1-Methyl-4-phenyl-1,2,3,6-tetrahydropyridine hydrochloride (abbreviated hereinafter as MPTP HCl (RBI Co., Ltd.)) was dissolved at a concentration of 4 mg/ml in physiological saline. A test compound was suspended at a concentration of 1 mg/ml in 0.3% […]. Each test group consisted of 9 to 10 animals, and a control group was intraperitoneally given physiological saline, and an MPTP HCl administration group and an MPTP HCl+test compound administration group were intraperitoneally given MPTP HCl (40 mg/kg).
After 1 hour, the control group and the MPTP HCl administration group were orally given 0.3% Tween, and the MPTP HCl+test compound administration group was orally given the test compound (10 mg/kg). After 1 week, the animals were decapitated, and the striatum was removed therefrom under cooling on ice. The striatum was stored in a deep freezer (<−80° C.) before a binding experiment.
A [^3H]-mazindol binding test was conducted in the following method. A striatum and 300 μl of buffer (120 mM NaCl, 5 mM KCl, 50 mM Tris, pH 7.9) were put into a micro-centrifuge tube and homogenized by portable homogenizer S-203 (manufactured by Ikeda Rika) and centrifuged at 15,000 rpm, 4° C. for 5 minutes (by KUBOTA 1710). The precipitates were suspended in 300 μl of buffer and then centrifuged again at 15,000 rpm, 4° C. for 5 minutes. The precipitates were suspended in 500 μl of buffer and then distributed into four test tubes in 100 μl portions. The remaining suspension (100 μl) was used for protein quantification. To determine non-specific binding, nomifensine maleate (RBI Co., Ltd.) (final concentration: 10 μM) as an inhibitor of dopamine uptake was added to two test tubes among the four test tubes. The binding reaction was initiated by adding 25 μl of [^3H]-mazindol (final concentration: 10 nM) (Spec. Act. 888 GBq/mmol, a product of NET). The mixture was incubated for 1 hour under cooling on ice, and the striatum homogenate was adsorbed onto a glass filter (Whatman, GF/B) in a cell harvester and washed three times with 5 ml of buffer. The radioactivity on the glass filter was measured with a liquid scintillation counter. For each striatum, specific [^3H]-mazindol binding was determined by subtracting the average of non-specific [^3H]-mazindol binding from the average of total [^3H]-mazindol binding.
Protein quantification was conducted by use of a Bio-Rad DC protein assay kit (Bio-Rad Co., Ltd.) with bovine serum albumin (Sigma Co., Ltd.) as a standard. Specific [^3H]-mazindol binding was expressed as the amount of bound [^3H]-mazindol per unit weight of protein, and the mean±standard error was determined for each group (10 animals).
In Table 2, the results are expressed in terms of the amount of specifically bound [^3H]-mazindol (fmol/mg protein) in the striatum.

[1] = MPTP HCl 40 mg/kg i.p., test compound 10 mg/kg orally after 1 hour

| SMILES | minimum lethal dose (MLD) (dd-strain male mice) | amount of specifically bound [3H]-mazindol in the striatum (dopaminergic neurons; [1]) [fmol/mg protein] | reduction of the amount of specifically bound [3H]-mazindol by administration of MPTP HCl (dopaminergic neurons; statement in words, 10 mg/kg orally, MPTP HCl mice) | amount of specifically bound [3H]-mazindol in the striatum (dopaminergic neurons; MPTP HCl 40 mg/kg i.p. alone (0.3% Tween orally after 1 hour), hydrochloride) |
| --- | --- | --- | --- | --- |
| CCn1c(=O)c2c(nc(/C=C/c3ccc(OC)c(OC)c3)n2C)n(CC)c1=O [Compound 1, (E)-1,3-diethyl-8-(3,4-dimethoxystyryl)-7-methylxanthine] | greater than 1000 mg/kg | 950.9 ± 54.1 | inhibited | – |
| CCCn1c(=O)c2c(nc(/C=C/c3ccc(OC)c(OC)c3)n2C)n(CCC)c1=O [Compound 2, (E)-8-(3,4-dimethoxystyryl)-1,3-dipropyl-7-methylxanthine] | – | 784.8 ± 41.6 | – | – |
| CCn1c(=O)c2c(nc(/C=C/c3cc(OC)c4c(c3)OCO4)n2C)n(CC)c1=O [Compound 3, (E)-1,3-diethyl-8-(3-methoxy-4,5-methylenedioxystyryl)-7-methylxanthine] | – | 794.9 ± 28.5 | – | – |
| COc1cc(/C=C/c2nc3c(c(=O)n(C)c(=O)n3C)n2C)cc(OC)c1OC [Compound 4, (E)-8-(3,4,5-trimethoxystyryl)caffeine] | – | 923.5 ± 51.1 | – | – |
| CN1CC=C(c2ccccc2)CC1.Cl [MPTP HCl, 1-Methyl-4-phenyl-1,2,3,6-tetrahydropyridine hydrochloride, reference compound] | – | – | – | 674.2 ± 38.1 fmol/mg protein and 616.3 ± 32.8 fmol/mg protein and 621.2 ± 27.7 fmol/mg protein |
